Measured values: patent publication US10488418B2, “Fluorescence assay for intestinal permeability” (THE REGENTS OF THE UNIVERSITY OF CALIFORNIA, priority 2014, dated 2019)
Read-outs that look alike come from different tables or passages of the source. Each block holds one compound with its values, some of them ahead of it.

Key:
[1] = Viologen based fluorescence assay for sugars in urine with 4,4′oBBV and HPTS; design: species or system human
Text: (§1) A Marquardt 4-parameter curve fit was used. […] The g in urine/g ingested×100 yielded % ingested. Lactulose measurements were confirmed by enzyme assay.
Statistics: The lower limit of detection (LLOD) was defined as the analyte concentration in the urine sample at which fluorescence intensity in the assay was 3 standard deviations above the mean baseline fluorescence. Similarly, the lower limit of quantification (LLOQ) was defined as 10 standard deviations above the mean baseline fluorescence. Coefficient of variation percent (CV %) was determined by averaging sets of samples each measured in 4 wells. Results are given as mean±SEM.

[2] = human, in vivo
Protocol: (§2) Intestinal permeability test in humans: Subjects consumed 0.5-1.0 L water the night before and in the morning about 3 hour prior to sample collection. The first morning urine was voided. No food or other beverages were consumed prior to the test. Permeability probes were ingested after baseline urine collection. […] Test subjects were permitted to drink water or coffee as desired. Light snacks were permitted after the fourth hour. Urine volumes were recorded and 50 mL was retained for analysis.
(§3) Sample collection: Freshly collected urine (50 ml) was first centrifuged 2500 RCF at 4° C. for 10 minutes.
(§4) Supernatants were pipetted 40 μL/well in duplicate into plates (#3694, Corning, USA). Fluorescence (Exc/Em 450/580 nm) was read on a plate reader (Infinite M200Pro, Tecan, Switzerland). Concentration was calculated as mg/mL and multiplied by total urine volume in mL, giving total mg in urine. The mg in urine/mg ingested×100 yielded % ingested.
(§5) The SPE column was cleaned with MeOH and H2O between runs. […] Data was corrected for a 9% loss. After SPE, samples were directed to the various assays.
(§6) Viologen method for lactulose and mannitol permeability in humans: Ready-made assay 96 well plates were prepared (#3694, Corning, 199 USA). A 4× premix buffer was prepared (0.1 M sodium phosphate, 0.1 M HEPES, 0.04% Triton X-100, pH 7.4). To this was added HPTS (16 μM) and quencher (1.6 mM 4,4′oBBV or 2.0 mM 4,4′oMBV), each 4 times above final concentration. The different viologen concentrations were chosen to achieve similar extents of quenching in the absence of sugar (about 20% of free fluorophore) while preserving a strong signal to noise (S/N). Blank wells were given 10 μl 4× premix buffer with neither HPTS nor viologen. Some wells received 16 μM HPTS without quencher to determine maximum possible fluorescence. All other wells received 10 μl of the complete 4× premix. Those premixes containing 4,4′oBBV were continuously vortexed because the mixture is a suspension. Plates were sealed with plate tape and stored at 4° C. until use.
(§7) Upon running an assay, 30 μl of standards or samples were pipetted into wells. Final concentrations were 4 μM HPTS and 400 μM 4,4′oBBV or 500 μM 4,4′oMBV. Urine samples were placed in both blank wells (for individual sample blanking) and wells containing complete 4× premix. Plates were put on a shaker for 1 hr, RT. During this time, sugars interacted with the HPTS-viologen complex, liberating HPTS into solution. Plates were then centrifuged at 2500 RCF for 10 minutes at room temperature to pull down remaining HPTS-quencher particulate matter. Plate tape was removed and fluorescence read on a plate reader (Tecan M-200 Infinite, gain 70, 404/535 nm). The height was adjusted to read from the top of the solution (18 mm). […] A Marquardt 4-parameter curve fit was used. Sugar concentrations were calculated as g/mL and multiplied by total urine volume in mL, giving total amount of urine in grams. Values were corrected for percentage recovery from the C18 SPE step. The g in urine/g ingested×100 yielded % ingested. Lactulose measurements were confirmed by enzyme assay. Mannitol measurements were confirmed by HPLC-Evaporative Light Scattering Detector (HPLC-ELSD) using a C8 pre-column and Prevail Carbohydrate ES 5μ 250×4.6 mm column (Grace Davison 224 Discovery Sciences, Ill., USA) with 80:20 MeCN/H2O.

[3] = Quenching of HPTS fluorescence by boronic acid viologen in absence of sugar
Protocol: as §1
The term “Initial quench” as used herein refers to HPTS fluorescence in presence of quencher and absence of sugar (maximum achievable quench) as a percent of maximum possible fluorescence with 4 μM free HPTS in absence of any quencher. The term “LLOD” as used herein refers to analyte concentration in original urine sample (as opposed to final concentration in the assay) at which the fluorescence signal equals or exceeds 3 standard deviations above mean assay noise level. The term “LLOQ” as used herein refers to analyte concentration in original urine sample at which the fluorescence signal equals or exceeds 10 standard deviations above mean assay noise level. The term “range” as used herein refers to urine concentrations found in healthy volunteers before transforming data to % ingested. The term “Mean±SEM” as used herein refers to standard mean plus or minus standard error of mean as generally understood in medical science. The term “CV %” as used herein refers to intra-assay coefficient of variation for samples.

[4] = Intestinal permeability test in humans (urine excretion of ingested probes)
Protocol: as §2, §3, §4, §5, §6, §7

[5] = viologen assay system, viologen not specified

Typical values for humans (urine concentration) [2]: 0.2 to 1.5 mM
SMILES: OC[C@H]1O[C@@H](O[C@@H]2[C@@H](CO)OC(O)(CO)[C@H]2O)[C@H](O)[C@@H](O)[C@H]1O (mixture of isomers) [Lactulose, lactulose]
signal stronger than fructose [1, 5]: ~20%

SMILES: OB(O)c1ccccc1C[n+]1ccc(-c2cc[n+](Cc3ccccc3B(O)O)cc2)cc1 [4,4′oBBV, 1,1′-bis(2-boronobenzyl)-4,4′-bipyridinium]
Relative selectivity ([1]; 4,4′oBBV): lactulose>fructose>galactose

SMILES: OB(O)c1ccccc1C[n+]1ccc(-c2cc[n+](Cc3ccccc3)cc2)cc1 [4,4′oMBV, 1-(2-boronobenzyl)-1′-benzyl-4,4′-bipyridinium]
Initial Quench % Max ([3]; HPTS fluorescence with quencher and no sugar, as percent of 4 μM free HPTS, final 400 μM 4,4′oBBV or 500 μM 4,4′oMBV): 16%
higher concentration required than 4,4′oBBV to achieve the same extent of quenching ([3]; HPTS quenching, 0 μM sugar): about 20%

time of return to baseline in urine after ingestion [2]: about 6 hours
Typical values for humans (urine concentration) ([4]; human urine): 1 to 10 mM
RANGE (urine concentrations found in healthy volunteers) ([4]; human urine after oral 50 mg riboflavin, 5 g mannitol or 10 g lactulose, mean±SEM, sugars measured with 4,4′oBBV): 3929 ± 972 µM
SMILES: OC[C@@H](O)[C@@H](O)[C@H](O)[C@H](O)CO [Mannitol, mannitol]

Typical values for humans (urine concentration) [2]: 0.01 to 0.1 mM
time of return to baseline in urine after ingestion [2]: about 6 hours
SMILES: Cc1cc2nc3c(=O)[nH]c(=O)nc-3n(C[C@H](O)[C@H](O)[C@H](O)CO)c2cc1C [Riboflavin, riboflavin]

SMILES: OC[C@H]1O[C@@H](O[C@H]2[C@H](O)[C@@H](O)C(O)O[C@@H]2CO)[C@H](O)[C@@H](O)[C@H]1O (stereo partly shown) [lactose]
response of 4,4′oBBV to sugar ([1]; 10 mM sugar): essentially no response

SMILES: OC[C@H]1O[C@H](O[C@]2(CCl)O[C@H](CCl)[C@@H](O)[C@@H]2O)[C@H](O)[C@@H](O)[C@H]1Cl [sucralose]
interference with the viologen based method [1]: Neither sucrose nor sucralose interfere

SMILES: OC[C@H]1O[C@@](CO)(O[C@H]2O[C@H](CO)[C@@H](O)[C@H](O)[C@H]2O)[C@@H](O)[C@@H]1O [sucrose]
interference with the viologen based method [1]: Neither sucrose nor sucralose interfere
fluorescence signal [1, 5]: no signal

SMILES: O=C(CO)[C@@H](O[C@H]1O[C@H](CO)[C@@H](O)[C@H](O)[C@H]1O)[C@H](O)[C@H](O)CO [turanose]
fluorescence as percent of fructose [1, 5]: ~30%
fluorescence as percent of the lactulose fluorescence [1, 5]: ~20%
